The record followed here is patent US20050187150A1, “Structure-based design and synthesis of FGF inhibitors and FGF modulator compounds” (New York University, priority 2001, published 2005).

The test system of one assay is ERK-1 and ERK-2. As to the kind of experiment: ERK-1/ERK-2 phosphorylation in BaF3 cells over-expressing FGFR1 (immunoblot). The settings on record: co-incubation with FGF1 50 ng/ml; heparin 10 μg/ml or sulfonated β-cyclodextrin 5 and 25 μM. Type of assay: cell-based.
The subject of a further assay is FGFR1. As to the kind of experiment: FGF receptor autophosphorylation in BaF3 cells over-expressing FGFR (anti-FGFR1 immunoprecipitation, phosphotyrosine immunoblot). It is filed as cell-based. To be noted: five minutes stimulation with FGF1 50 ng/ml plus heparin 10 μg/ml or sulfonated cyclodextrin 5 or 25 μM. Here is the method:
To verify that the effect of sulfonated β-cyclodextrin observed in FIG. 15A is actually due to activation of the FGF receptor, experiments were conducted that examined the capacity of heparin and β-cyclodextrin to stimulate kinase activity of FGF receptor in living cells. See, Mohammadi et al., Science 1997, 276:955-960 for a detailed description of such experiments.
Briefly, BaF3 cells over-expressing FGFR were stimulated for five minutes with FGF1 ligand (50 ng/ml), heparin (10 μg/ml) and/or sulfonated […] 5 or 25 μM). The cells were then lysed. Their proteins were immunoprecipitated with antibodies to FGFR1, separated by SDS-polyacrylamide gel electrophoresis (PAGE), immunoblotted with antibodies to phosphotyrosine, and detected by autoradiography. […] See, the left-hand and right-hand lanes, respectively, in FIG. 15B.
For orientation: Immunoblotting shows a protein as a band on a membrane.

Assay [1] concerns BaF3 cells that stably express wild-type FGFR1. Briefly: Proliferation of BaF3 cells stably expressing FGFR1 in the presence of FGF1. To be noted: FGF1 50 ng/ml; sulfonated β-cyclodextrin 1, 5, 10 and 25 μM. It is filed as cell-based. An excerpt: This examples describes experiments that investigate the ability of sulfonated β-cyclodextrin to function as an effective heparin agonists. In particular, the cell-based assay described in Example 2, supra, is used here to investigate the ability of sulfonated β-cyclodextrin to modulate FGF ligand-dependent activation of the FGF receptor in vivo.
The assay uses a BaF3 cell line which overexpresses FGFR1. This cell line has been previously described and is known in the art (see, e.g., Huang et al., J. Biol. Chem. 1995, 270:5065-5072). BaF3 cells are a lymphoid cell line, which are dependent on interleukin-3 (IL-3) for growth. […] Accordingly, the growth rate of such transfected cells is useful as a measurement of FGF receptor activity in vivo. Ordinarily, because BaF3 cells express only low amounts of HSPG, soluble heparin must also be present to elicit the FGF-dependent mitogenic response observed in the transfected cells.
For the experiments described here, BaF3 cells that stably express wild-type FGFR1 ([…]) were cultured according to standard methods that have been previously described (see, Huang et al., supra). […] The numbers of viable cells in each well were counted daily in duplicate. […]

Assay [2] deals with T1, FGF2-FGFR1 complexes (Homo sapiens, UniProt P09038+P11362).
T1 construct: made in house
Briefly: Size exclusion chromatography of purified 1:1 FGF2:FGFR1 complexes mixed with test compound (dimerization). Type of assay: binding. The settings on record: for dimerization of FGF:FGFR complex (peaks in size exclusion chromatogram): compound added at 1:1:1 molar ratio FGF2:FGFR1:compound; for dimerization of FGF:FGFR complex (dimer peak D in size exclusion chromatogram): compound added at molar ratio 1:1:0.25 and 1:1:0.5 FGF2:FGFR1:compound, Superdex 200, 25 mM HEPES-NaOH pH 7.5, 150 mM NaCl. An excerpt: A construct encoding an extracellular ligand binding portion of the FGFR1 polypeptide set forth in FIG. 1A (SEQ ID NO:1) was expressed in E. coli and refolded […] using established protocols, as previously described by Plotnikov et al. (Cell 2000, 101:413-424). In particular, the soluble FGFR1 polypeptide expressed by this construct, which is referred to here as D23, comprises amino acid residues 142 to 365 of SEQ ID NO:1, which correspond to the immunoglobulin (Ig)-like domains 2 and 3 (D2 and D3, respectively), which are known to confer ligand binding and specificity for the FGFR receptor. However, the D23 polypeptide is missing the Ig-like domain 1 (D1), the acid box and the linker polypeptide sequence between D3 and the transmembrane helix. The D23 polypeptide is therefore similar to a naturally occurring splice variant of FGFR1 that retains full ligand binding capacity (Johnson et al., Mol. Cell. Biol. 1990, 10:4728-4736).
When expressed in E. coli cells, the D23 polypeptide was found entirely in inclusion bodies. The polypeptide was solubilized using standard denaturing reagents and refolded in vitro. Following purification by ion exchange chromatography, the D23 polypeptide was complexed with the FGF2 ligand polypeptide whose amino acid sequence is set forth in FIG. 2A (SEQ ID NO:3) and purified by size exclusion chromatography.
To quantitate dimerization, the purified 1:1 FGF2:FGFR1 complexes were mixed at various molar ratios with SOS and analyzed by size exclusion chromatography according on SUPERDEX 200® (Amersham Pharmacia Biotech.) size exclusion column in 25 mM HEPES-NaOH buffer (pH 7.5) containing 150 mM sodium chloride.
In these experiments, two milligram aliquots of the purified FGF2-FGFR1 complex described, supra, in Example 1 were mixed with suramin and analyzed on a size exclusion column equilibrated with 25 mM HEPES-NaOH buffer (pH 7.5) containing 150 mM NaCl.
(Size exclusion chromatography separates by hydrodynamic size, large species first.)

In assay [3] the test system is BaF3 cells that stably expressed wild-type FGFR1. As to the kind of experiment: Proliferation of BaF3 cells stably expressing FGFR1 in the presence of FGF2. It is filed as cell-based. An excerpt:
This example describes experiments that investigated the ability of SOS to modulate FGF ligand-dependent activation of the FGF receptor in vivo. In particular, an assay is described here that uses a BaF3 cell line which overexpresses FGFR1. This cell line has been previously described and is therefore known in the art (see, e.g., Huang et al., J. Biol. Chem. 1995, 270:5065-5072).
BaF3 cells are a lymphoid cell line, which are dependent on interleukin-3 (IL-3) for growth. […] Accordingly, the growth rate of such transfected cells is useful as a measurement of FGF receptor activity in vivo. Because BaF3 cells express only low amounts of HSPG, soluble heparin must also be present to elicit the FGF-dependent mitogenic response observed in the transfected cells.
For the experiments discussed here, BaF3 cells that stably expressed wild-type FGFR1 (SEQ ID NO:1) were cultured according to standard methods that have been previously described (see, Huang et al., supra). 1×10^4 cells were seeded in triplicate wells and grown in the presence of heparin (3 μM) or, alternatively, in the presence of various concentrations (0.1, 0.5, 1, 5 and 10 μM, respectively) of SOS. The numbers of viable cells in each well were counted daily in duplicate.
Paradoxically, however, FGFR dimers promoted by suramin are signaling incompetent. That is to say, the FGF receptor is not activated in these dimers. […]

Assay [4] concerns the target T1, FGF2-FGFR1 complexes. As to the kind of experiment: X-ray crystallography of the dimeric FGF2-FGFR1-SOS ternary complex. Here is the method:
This example describes x-ray crystallography experiments that better characterize the molecular mechanisms by which SOS may interact with and/or stabilize dimers of FGF-FGFR complexes. In particular, this example describes the crystalization of FGF2-FGFR1 complexes with SOS and the solution of that crystal structure by analyzing x-ray diffraction data.
Crystals of dimeric FGF2-FGFR1-SOS complexes were grown by vapor diffusion at 20° C. using the hanging drop method. 2 μL of protein solution (10 mg/mL in 25 mM HEPES-NaOH (pH 7.5) and 150 mM NaCl) was mixed with an equal volume of crystallization buffer (12-16% Polyethylene glycol 5000, 0.2 M ammonium sulfate and 15% glycerol in 0.1 M HEPES-NaOH (pH 7.5)). The protein solution contained a 1:1:1 stoichiometric ratio of FGF2, and soluble FGFR1 construct described, supra, in Example 1, and SOS.
The crystal belongs to the orthorhombic space group P21 21 21 and has unit cell dimensions of a=64.2 Å, b=122.4 Å and c=219.5 Å. The crystal contains four FGF2-FGFR1-SOS complexes in the asymmetric unit with a solvent content of about 56%.
Diffraction data were collected from a flash-frozen crystal on a CCD detector at beamline X4A at the National Synchrotron Light Source, Brookhaven National Laboratory. The data were processed using DENZO and SCALEPACK (Otwinowski & Minor, Methods Enzymol. 1997, 276:307-326). […]

T1 sequence (P11362 142-365): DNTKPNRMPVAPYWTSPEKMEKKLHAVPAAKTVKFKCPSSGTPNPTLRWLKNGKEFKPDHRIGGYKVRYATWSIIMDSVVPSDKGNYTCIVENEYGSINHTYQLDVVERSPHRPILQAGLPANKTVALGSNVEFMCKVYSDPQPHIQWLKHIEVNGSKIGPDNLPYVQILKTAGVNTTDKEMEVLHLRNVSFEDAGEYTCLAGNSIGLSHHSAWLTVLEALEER
T1 sequence (P09038 134-288): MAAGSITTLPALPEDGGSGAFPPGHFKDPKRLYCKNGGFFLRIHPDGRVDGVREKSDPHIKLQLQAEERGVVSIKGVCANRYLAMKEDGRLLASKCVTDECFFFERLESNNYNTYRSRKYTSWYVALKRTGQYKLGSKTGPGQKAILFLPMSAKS

On to sulfonated β-cyclodextrin, for which the “autophosphorylation of ERK-1 and ERK-2” value in the assay with ERK-1 and ERK-2 was “induces autophosphorylation of ERK-1 and ERK-2”. In the assay with FGFR1, the “autophosphorylation of the FGF receptor” value is reported as “results in autophosphorylation of the FGF receptor”. Besides, the “proliferation of BaF3 cells over expressing FGFR1 (daily viable cell counts)” value in assay [1] was “supports the FGF ligand in inducing proliferation of the BaF3 cells over expressing FGFR1 in a dose-dependent manner”.
Take heparin: the “autophosphorylation of ERK-1 and ERK-2” value in the assay on ERK-1 and ERK-2 is “induces autophosphorylation of ERK-1 and ERK-2”. In addition, the “autophosphorylation of the FGF receptor” value in the assay on FGFR1 was “stimulated autophosphorylation of the FGF receptor”.
Turning to `Cc1ccc(C(=O)Nc2ccc(S(=O)(=O)O)c3cc(S(=O)(=O)O)cc(S(=O)(=O)O)c23)cc1NC(=O)c1cccc(NC(=O)Nc2cccc(C(=O)Nc3cc(C(=O)Nc4ccc(S(=O)(=O)O)c5cc(S(=O)(=O)O)cc(S(=O)(=O)O)c45)ccc3C)c2)c1` [suramin], at FGF2-FGFR1 complexes [2], the “dimerization of FGF:FGFR complex (peaks in size exclusion chromatogram)” value is given as “only a peak corresponding to the FGF:FGFR dimers is observed” and the “dimerization of FGF:FGFR complex (dimer peak D in size exclusion chromatogram)” value is reported as “a third peak corresponding to dimers of the FGF:FGFR complex is observed”. Also, the “heparin-like or SOS-like activity (FGF ligand-dependent activation of FGF receptor, BaF3 cell growth)” value in assay [3] (BaF3 cells grown with suramin instead of heparin or SOS, contacted with FGF ligand) was “no heparin-like or SOS-like activity was observed”.
In the case of `O=S(=O)(O)OC[C@H]1O[C@@](COS(=O)(=O)O)(O[C@H]2O[C@H](COS(=O)(=O)O)[C@@H](OS(=O)(=O)O)[C@H](OS(=O)(=O)O)[C@H]2OS(=O)(=O)O)[C@@H](OS(=O)(=O)O)[C@@H]1OS(=O)(=O)O` [SOS, sucrose octasulfate], the “hydrogen bonds of the well ordered SOS molecule with FGF2 and both FGFR1 molecules” value at FGF2-FGFR1 complexes [4] (crystal structure at 2.6 Å resolution) is given as 13. The “effect on FGF-FGFR binding affinity inferred from the crystal structure” value at FGF2-FGFR1 complexes [4] (interaction mimics heparin) is given as “increases FGF-FGFR binding affinity”. At FGF2-FGFR1 complexes [2], the “dimerization of FGF:FGFR complex (peaks in size exclusion chromatogram)” value is listed as “only a peak corresponding to FGF:FGFR dimers is observed” and the “dimerization of FGF:FGFR complex (dimer peak D in size exclusion chromatogram)” value is on record as “a third peak corresponding to dimers of the FGF:FGFR complex is observed”. For the same molecule, the “proliferation of BaF3 cells over expressing FGFR1 (daily viable cell counts)” value in assay [3] (FGF2 50 ng/ml, SOS 0.1, 0.5, 1, 5 and 10 μM) is listed as “supports FGF2 in inducing proliferation of the BaF3 cells over expressing FGFR1 in a dose-dependent manner”.
